Measurements reported in patent US11076595B2, “1-(n,n-disubstituted carbamoyl) 4-(substituted sulfonyl)triazolin-5-one derivative, 4-(n,n-disubstituted carbamoyl) 1-(substituted sulfonyl)triazolin-5-one derivative, and herbicide containing said derivative as active ingredient” (HOKKO CHEMICAL INDUSTRY CO., LTD., priority 2017, dated 2021).

Columns and labels:
Assay type in all cases: in vivo
Monochoria vaginalis [1] = test: Test Example 12: herbicidal effect test by treatment during growing period in paddy field; conditions: 120 g/10a; treatment seven days after sowing in flooded paddy pot; assessed 14 days after treatment
How it was run: (§1)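 Water-diluted emulsifiable concentrate added dropwise to flooded pots (~3 cm water) 7 d after sowing; rate 120 g active ingredient per 10 are. Weeds grown from 30 seeds each in puddled paddy soil under greenhouse conditions. Dry-weight suppression rate relative to untreated plots determined 14 d after treatment, duplicates.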

Scirpus juncoides [2] = test: as above; conditions: 120 g/10a; treatment seven days after sowing in flooded paddy pot; assessed 14 days after treatment
How it was run: as §1

Echinochloa crus-galli [3] = test: as above; conditions: 120 g/10a; treatment seven days after sowing in flooded paddy pot; assessed 14 days after treatment
How it was run: as §1

Lindernia pyxidaria [4] = test: as above; conditions: 120 g/10a; treatment seven days after sowing in flooded paddy pot; assessed 14 days after treatment
How it was run: as §1

Chenopodium album [5] = test: Test Example 13: herbicidal effect test by soil treatment in upland field; conditions: 120 g/10a, 14 days after treatment
How it was run: (§2)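 Weed suppression rate (%) computed at 14 days as 1 minus treated/untreated mean dry weight, times 100, with two replicates per concentration. Emulsifiable concentrate diluted in water was applied at 120 g a.i. per 10 are (100 liter per 10 are) onto soil surface one day post-sowing of 20 seeds each in 36 cm^2 pots of alluvial soil.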

Echinochloa crus-galli [6] = test: as above; conditions: 120 g/10a, 14 days after treatment
How it was run: as §2

Amaranthus viridis [7] = test: as above; conditions: 120 g/10a, 14 days after treatment
How it was run: as §2

crabgrass [8] = test: as above; conditions: 120 g/10a, 14 days after treatment
How it was run: as §2

Monochoria vaginalis [9] = test: Test Example 11: herbicidal effect test by soil treatment in paddy field; conditions: 120 g/10a active ingredient, 14 days after treatment
How it was run: (§3)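 Pre-emergence flooded-paddy test: the water-diluted emulsifiable concentrate, 120 g active ingredient per 10 are, was dripped into pots immediately after seeding, with water held at about 3 cm. Two replicate pots per rate; 14 days after treatment, plant dry weight versus untreated pots gave the weed suppression rate.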

Scirpus juncoides [10] = test: as above; conditions: 120 g/10a active ingredient, 14 days after treatment
How it was run: as §3

Echinochloa crus-galli [11] = test: as above; conditions: 120 g/10a active ingredient, 14 days after treatment
How it was run: as §3

Lindernia pyxidaria [12] = test: as above; conditions: 120 g/10a active ingredient, 14 days after treatment
How it was run: as §3

Echinochloa crus-galli [13] = test: Test Example 14: herbicidal effect test by foliage treatment in upland field; conditions: 7 days after sowing, 120 g/10a, 14 days after treatment
How it was run: (§4)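 Post-sowing spray at day 7, 120 g a.i./10 are in 100 L water/10 are; alluvial soil pots, duplicate plots; endpoint day 14, % suppression from dry weight relative to untreated.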

Amaranthus viridis [14] = test: as above; conditions: 7 days after sowing, 120 g/10a, 14 days after treatment
How it was run: as §4

Chenopodium album [15] = test: as above; conditions: 7 days after sowing, 120 g/10a, 14 days after treatment
How it was run: as §4

crabgrass [16] = test: as above; conditions: 7 days after sowing, 120 g/10a, 14 days after treatment
How it was run: as §4

Row | Compound | Weed suppression rate (%) Monochoria vaginalis (Monochoria vaginalis [1]) | Weed suppression rate (%) Scirpus juncoides (Scirpus juncoides [2]) | Weed suppression rate (%) Echinochloa crus-galli (Echinochloa crus-galli [3]) | Weed suppression rate (%) Lindemia pyxidaria (Lindernia pyxidaria [4]) | herbicidal effect, Chenopodium album (Chenopodium album [5]) | herbicidal effect, Echinochloa crus-galli (Echinochloa crus-galli [6]) | herbicidal effect, Amaranthus viridis (Amaranthus viridis [7]) | herbicidal effect, Crabgrass (crabgrass [8]) | Weed suppression rate (%) Monochoria vaginalis (Monochoria vaginalis [9]) | Weed suppression rate (%) Scirpus juncoides (Scirpus juncoides [10]) | Weed suppression rate (%) Echinochloa crus-galli (Echinochloa crus-galli [11]) | Weed suppression rate (%) Lindemia pyxidaria (Lindernia pyxidaria [12]) | herbicidal effect, Echinochloa crus-galli (Echinochloa crus-galli [13]) | herbicidal effect, Amaranthus viridis (Amaranthus viridis [14]) | herbicidal effect, Chenopodium album (Chenopodium album [15]) | herbicidal effect, Crabgrass (crabgrass [16])
1 | CC(C)N(C(=O)n1cnn(S(=O)(=O)C2CCCCC2)c1=O)c1ccc(F)c(F)c1F [Compound 11-297] | 100% | 100% | 100% | 70% | 70% | 90% | 100% | 90% | 90% | 100% | 100% | 100% | 100% | 90% | 60% | 100%
2 | CCS(=O)(=O)n1ncn(C(=O)N(c2cccc(F)c2F)C(C)C)c1=O [Compound 11-1148] | 90% | 100% | 100% | 90% | 90% | 100% | 100% | 100% | 90% | 100% | 100% | 100% | 100% | 70% | 80% | 100%
3 | CC(C)CN(C)S(=O)(=O)n1ncn(C(=O)N(c2ccc(F)cc2F)C(C)C)c1=O [Compound 11-1101] | 80% | 90% | 90% | 80% | 80% | 80% | 90% | 90% | 90% | 90% | 90% | 90% | 80% | 90% | 80% | 90%
4 | CC(C)N(C(=O)n1cnn(S(=O)(=O)C(C)C)c1=O)c1ccc(F)cc1Cl [Compound 11-66] | 80% | 90% | 90% | 80% | 80% | 80% | 90% | 90% | 80% | 90% | 90% | 80% | 80% | 90% | 80% | 90%
5 | CCS(=O)(=O)n1ncn(C(=O)N(c2c(F)cc(F)cc2F)C(C)C)c1=O [Compound 11-1154] | 90% | 80% | 100% | 80% | 80% | 100% | 90% | 100% | 100% | 100% | 100% | 100% | 100% | 30% | 80% | 100%
6 | CC(C)N(C(=O)n1cnn(S(=O)(=O)C2CC2)c1=O)c1c(F)cccc1F [Compound 11-191] | 90% | 90% | 100% | 90% | 70% | 100% | 70% | 100% | 90% | 100% | 100% | 100% | 100% | 60% | 60% | 100%
7 | CC(C)N(C(=O)n1cnn(S(=O)(=O)N(C)C)c1=O)c1ccc(F)cc1 [Compound 11-1056] | 80% | 90% | 90% | 80% | 80% | 80% | 90% | 90% | 80% | 90% | 90% | 80% | 80% | 90% | 80% | 90%
8 | CCN(CC)C(=O)n1cnn(S(=O)(=O)c2ccc(F)cc2)c1=O [Compound 11-463] | 80% | 80% | 90% | 80% | 100% | 90% | 80% | 90% | 50% | 40% | 90% | 50% | 70% | 40% | 0% | 60%
9 | Cc1ccc(S(=O)(=O)n2ncn(C(=O)N(c3ccccc3)C(C)C)c2=O)cc1 [Compound 11-626] | 80% | 90% | 90% | 80% | 70% | 90% | 50% | 90% | 70% | 90% | 100% | 90% | 40% | 60% | 90% | 90%
10 | CC(C)N(C(=O)n1cnn(S(C)(=O)=O)c1=O)c1c(F)cc(F)cc1F [Compound 11-16] | 100% | 100% | 100% | 90% | 70% | 100% | 100% | 100% | 90% | 90% | 100% | 100% | 100% | 30% | 70% | 100%
